The record followed here is PubChem BioAssay AID2305 (GlaxoSmithKline (GSK), 2010).

In this test the test system is P. falciparum 3D7 growth, pLDH absorbance. Briefly: P. falciparum 3D7 growth inhibition, dose response, strain 3D7 (AID 2305).

For the molecule `Cc1ccc2c(c1)nc(N)n2C[C@H](O)c1ccccc1`, the IC50 was determined as 580 nM.
The result for `CCNc1cc(C(=O)N[C@@H](Cc2ccccc2)[C@H](O)CNC(C)CC(C)C)c(F)c(N2CCCCS2(=O)=O)c1` (stereo partly specified) reads 1120 nM.
`Cc1ccc(Cn2cnc3cc(C(=O)Nc4ccc(-c5ccc(CN(C)C)cc5)cc4)ccc3c2=O)o1` gave an IC50 of 1260 nM.
The result for `CCN(CCCN1CCCCC1)c1cc(C)nc(Nc2ccc(C)cc2Cl)n1` reads 340 nM; that for `COc1ccc(C(=O)[C@H]2C[C@@H]2CN2CC=C(c3c[nH]c4ccccc34)CC2)cc1`, 530 nM.
In the case of `Nc1nonc1-c1nc2c(-c3cccc(Cl)c3)nccc2n1CCCNC(=O)Cc1ccc(Cl)cc1` it was 270 nM.
`CCN(CC)CCN(CCCc1ccc(-c2ccc(C(F)(F)F)cc2)cc1)C(=O)Cn1c(CCc2cccc(F)c2F)nc(=O)c2c1CCC2` registered an IC50 of 830 nM.
In the case of `CCc1cc(Cc2cnc(N)nc2N)cc(CC)c1OC` it was 1130 nM; in that of `CC1(C)CCCN(c2ncc(-c3cccc(CNCc4ccccc4O)c3)cn2)C1`, 890 nM.
As to `Cc1ccc2c(OCCN3CCC(Cc4cc5c(cc4F)OCC(=O)N5)CC3)cc(F)cc2n1`, the concentration for half-maximal inhibition (IC50) is 630 nM.
With `CC(C)C1=CC(=NOS(=O)(=O)c2ccccc2)C=C(C(C)C)C1=O`, the IC50 stood at 710 nM.
The result for `CN1CCN(c2ccnc3ccc(NC(=O)Nc4ccc(-c5ccncc5)c5ccccc45)cc23)CC1` reads 310 nM.
The result for `Clc1ccccc1/C=C/c1cncnc1Nc1ccc2nc(Cc3ccccc3)[nH]c2c1` reads 920 nM; that for `COc1cccc(CNC(=O)NC2CCN(c3ccnc(Nc4ccc(F)cc4)n3)C2)c1` (stereo unspecified), 810 nM.
Regarding `COc1ccc(-c2ccccc2CNC2Cc3ccccc3C2)cc1S(=O)(=O)NCCN1CCCC1`, the IC50 stood at 870 nM.
In the case of `Cc1cc(NC(=O)[C@H](CC(C)C)Nc2ccc(C#N)c3ccccc23)ccc1F` it was 780 nM; in that of `CCOC(=O)c1ccc(NC(=O)c2ccccc2C(=O)O)cc1`, 920 nM; in that of `CC1CC(C)CN(CC(O)CNC(=O)Nc2ccc(Br)cc2)C1` (stereo unspecified), 1050 nM.
Molecule `COCCOc1ccc(C(F)(F)F)cc1NC(=O)Cc1c(F)cccc1Cl` showed a half-maximal inhibitory concentration (IC50) of 1000 nM.
With `Cn1cncc1CCN(Cc1ccc(-c2ccc(C(F)(F)F)cc2)cc1)C(=O)Cn1c(SCc2cccc(F)c2F)cc(=O)c2ccccc21`, the IC50 came out at 990 nM.
Molecule `O=C(Nc1cccc(CN2CCN(Cc3cccc(O)c3)CC2)c1)c1cc2ccccc2s1` returned a half-maximal inhibitory concentration (IC50) of 1120 nM.
In turn, `CC1(C)N=C(N)N=C(N)N1OCCSCCON1C(N)=NC(N)=NC1(C)C` came in with a concentration for half-maximal inhibition (IC50) of 50 nM.
In turn, `O=c1cc(NCCCN(Cc2cc3c(Cl)cc(Cl)cc3[nH]2)Cc2cc3c(Cl)cc(Cl)cc3[nH]2)[nH]c2ccccc12` displayed an IC50 of 120 nM.
The result for `CS(=O)(=O)CCNCc1cccc(-c2ccc3c(Nc4ccc(Oc5cccnc5)cc4)ccnc3c2)c1` reads 140 nM; that for `O=C(NC1CCN(Cc2ccccc2)CC1)c1cccc(-c2cc3cc(Cl)c(Cl)cc3[nH]2)c1`, 720 nM.
The result for `CCn1ccc2c(N3CCCCS3(=O)=O)cc(C(=O)N[C@@H](Cc3ccccc3)[C@H](O)CNC(C)(C)c3cccc(C(F)(F)F)c3)cc21` reads 130 nM; that for `Cc1noc(C)c1-c1cccc(CNCc2ccc(-c3ccc(-c4nc5ccccc5[nH]4)s3)cc2)c1`, 560 nM.
The result for `COc1ccc2nc3cc(Cl)ccc3c(Nc3ccc(O)c(CN4CC5CCC(CC5)C4)c3)c2c1` reads 170 nM; that for `CC(C)CC(=O)N1CCNC[C@@H]1C(=O)NC1CC1`, 1090 nM.
The molecule `O=C(/C=C/c1cccc(Cl)c1)NCCCCCN1CCC(c2c[nH]c3ccccc23)CC1` yielded an IC50 of 990 nM.
The molecule `CCCCCN1CCC(NS(=O)(=O)c2ccc(C(=O)Nc3cccc(C(F)(F)F)c3)cc2)C1` (stereo unspecified) displayed a half-inhibitory concentration (IC50) of 1000 nM.
In turn, `CCCCCCCc1c(C)[nH]c2ccccc2c1=O` yielded a half-maximal inhibitory concentration (IC50) of 210 nM.
In the case of `CCCC[C@H](NC(=O)OC(C)(C)C)C(=O)Nc1ccc(Cc2ccc(NC(=O)[C@H](CCCC)NC(=O)OC(C)(C)C)cc2)cc1` it was 730 nM; in that of `Fc1ccc2nc(-c3ccc(-c4ccc(CN5CCN(c6cnccn6)CC5)cc4)s3)[nH]c2c1`, 620 nM.
In the case of `COc1ccc(CN2CCC(C(=O)Nc3cccc(-c4cccc(Cl)c4)c3)CC2)cc1O` it was 970 nM.
The molecule `COc1cccc(CNC(=O)c2ccnc(-c3cccc(CN(C)C4CCN(C)CC4)c3)c2)c1` yielded a concentration for half-maximal inhibition (IC50) of 830 nM.
In the case of `COc1ccc(-c2ccc(NC(=O)c3ccc(F)cc3)cc2)cc1CN1CCCN(C)CC1` it was 660 nM; in that of `CCN(CC)c1cc(C)c2cc(NC(=O)c3cc(=O)c4ccccc4o3)ccc2n1`, 220 nM.
Molecule `CCCCN(CCCC)C(=O)CC(O)c1cc2c(Cl)cc(Cl)cc2c2cc(C(F)(F)F)ccc12` (stereo unspecified) yielded a half-inhibitory concentration (IC50) of 1210 nM.
The result for `COc1cc(CNCCCCCCNCc2cc(OC)c3ccccc3c2OC)c(OC)c2ccccc12` reads 700 nM.
In the case of `Cc1ccc2c(c1)NC[C@@]21CCN(C[C@@H](O)C2CCN(c3ccnc(Cl)c3)CC2)C[C@@H]1C` it was 940 nM; in that of `CC(C)C[C@@H](NC(=O)NC1CCC(CCN2[C@@H]3CC[C@H]2CC(OC(=O)C(CO)c2ccccc2)C3)CC1)C(O)(c1ccccc1)c1ccccc1` (stereo partly specified), 1070 nM; in that of `O=[N+]([O-])c1ccc(Nc2nc(NN=Cc3cc(Cl)cc(Cl)c3O)nc(Nc3ccccc3)n2)cc1`, 670 nM.
In the case of `Nc1nc(N)c2c(ccc3c2cnn3Cc2cccnc2)n1` it was 50 nM; in that of `O=C(Nc1cccc(C2=NCCCN2)c1)Nc1cccc(C2=NCCCN2)c1`, 560 nM.
As for `COc1ccc(-n2ccnc2SCC(=O)Nc2cc(Cl)ccc2OC)c(OC)c1`, the IC50 amounted to 730 nM.
In the case of `Cc1ncc([N+](=O)[O-])n1CCOC(=O)NC(Nc1ccc(Br)cc1)C(Cl)(Cl)Cl` (stereo unspecified), the IC50 is 960 nM.
In the case of `COc1cc(NC(=O)N2CCc3ccc(OCCC4CCCN4C)cc32)cc(C(F)(F)F)c1` (stereo unspecified), the IC50 was determined as 710 nM.
In the case of `Cc1cc(CN2CCC(N3CC(c4ccccc4)(c4ccccc4)OC3=O)C2)ccc1O` (stereo unspecified) it was 780 nM.
In the case of `C[C@@H](Oc1cc(-n2cnc3ccc(OCC4CCN(S(C)(=O)=O)CC4)cc32)sc1C(N)=O)c1ccccc1C(F)(F)F` it was 1020 nM; in that of `CS(=O)(=O)c1ccc2c(c1)CCN(CCC1CCC(NC(=O)C(=Cc3ccc(Cl)cc3Cl)c3ccc(-c4ccccc4)cc3)CC1)CC2` (stereo unspecified), 1170 nM; in that of `CC1(C)N=C(N)N=C(N)N1OCc1cc(Cl)c(Cl)cc1CON1C(N)=NC(N)=NC1(C)C`, 10 nM.
For the molecule `CC(=O)Nc1nc(C(=O)Nc2cccc(-c3ccc(-c4nc5ccc(F)cc5[nH]4)cc3)c2)cs1`, the IC50 turned out to be 290 nM.
The result for `Fc1ccc2nc(-c3ccc(-c4ccc(CN5CCN(c6ccncc6)CC5)cc4)cc3)[nH]c2c1` reads 250 nM; that for `CCCC(C)c1cnc2nc(N)nc(N)c2c1C` (stereo unspecified), 30 nM; that for `O=C1C(c2ccccc2)=C(Nc2cc(Cl)cc(Cl)c2)c2ccccc21`, 370 nM.
The result for `CC[C@H](C)CNC(=O)c1cncc(-c2cccc(CN(C)C3CCN(C)CC3)c2)c1` reads 780 nM; that for `CC(C)CCN1CCC(Oc2ccc(NC(=O)c3ccco3)cc2Cl)CC1`, 680 nM.
As to `COc1ccc2c(NN=Cc3c(OC)ccc4ccccc34)cc(C)nc2c1`, the IC50 worked out at 780 nM.
In the case of `Cc1cc(F)ccc1[C@H]1CNCCN1C(=O)N(C)[C@@H](C)c1cc(C(F)(F)F)cc(C(F)(F)F)c1` it was 230 nM; in that of `O=C(Nc1cccc(-c2ccc(CN3CCNCC3)cc2)c1)c1cccc(Cl)c1`, 1250 nM.
The result for `Fc1ccc(Nc2ccnc3cc(-c4ccc(CNCCN5CCOCC5)o4)ccc23)c(Cl)c1` reads 190 nM.
The result for `O=C(NCCCN1CCCCC1)c1ccc(Nc2nccc(Nc3ccc(Oc4ccccc4)cc3)n2)cc1` reads 630 nM.
As for `Oc1cccc(/C=N/Nc2ccnc3cc(Cl)ccc23)c1`, the IC50 came to 730 nM.
On to `CCOC(=O)c1c(C)n(-c2ccccc2)c2ccc(O)cc12`, for which the concentration for half-maximal inhibition (IC50) is 470 nM.
The result for `CN1CCC(C(=O)Nc2ccc(-c3ccc(-c4nc5ccccc5[nH]4)s3)cc2)CC1` reads 820 nM; that for `COc1ccc(CCn2c(=N)c(C(=O)NC3CCCC3)cc3c(=O)n4ccccc4nc32)cc1`, 680 nM; that for `COc1cc(NC(=O)c2cc([N+](=O)[O-])ccc2NC(=O)CNC2CCCCC2C)cc(OC)c1` (stereo unspecified), 1730 nM.
The result for `O=C(O)C1CC(=O)N(c2ccc(Cl)cc2)C1` (stereo unspecified) reads 220 nM.
The result for `COc1ccc(/C=C/C(=O)Nc2ccc(-c3ccncc3)cc2)cc1CCCN(C)C` reads 750 nM; that for `COc1ccc(CNCc2ccc(-c3ccc(-c4nc5ccc(F)cc5[nH]4)cc3)cc2)cc1`, 250 nM; that for `COc1ccc2nccc(N3CCCN(CCNS(=O)(=O)c4ccc5c(c4)NC(=O)CS5)CC3)c2n1`, 820 nM.
`COc1ccc(-c2cc3nc4c(c(NCCCn5ccnc5)n3n2)CCCC4)cc1` had an IC50 of 730 nM.
In the case of `COc1cc(N)c(Cl)cc1C(=O)NCC1CCN(c2nc(C)cc(C)n2)CC1` it was 510 nM.
In the case of `COc1cc2ncnc(Nc3ccc(Br)c(Cl)c3)c2cc1OC` it was 720 nM; in that of `COc1cc(Nc2nccc(N3CCC(NC(=O)c4cccc(NC(C)=O)c4)C3)n2)cc(OC)c1OC` (stereo unspecified), 830 nM; in that of `CC1(C)CC(NC(=O)NC2CCN(Cc3ccccc3)CC2)CC(C)(CNC(=O)NC2CCN(Cc3ccccc3)CC2)C1` (stereo unspecified), 950 nM.
The result for `COc1ccccc1N1CCN(Cc2c(O)ccc3cc(Br)ccc23)CC1` reads 1150 nM.
As to `O=C(Nc1ccc(F)c([N+](=O)[O-])c1)Nc1cc(C(F)(F)F)ccc1Cl`, the half-inhibitory concentration (IC50) was 860 nM.
The result for `Cc1ccc(NC(=O)NC2CCN(CCCCCNC(=O)/C=C/c3ccc(Cl)c(Cl)c3)CC2)cc1` reads 690 nM; that for `CCN(CC)Cc1cc(Nc2c3ccc(Cl)cc3nc3cccc(OC)c23)ccc1O`, 30 nM; that for `Cc1cc2c3c(N)nc(N)nc3ccc2n1C(C)C`, 10 nM.
The result for `CCOc1cc(C(=O)N[C@@H](Cc2ccccc2)[C@H](O)CNC(C)(C)c2cccc(OC)c2)cc(N2CCCS2(=O)=O)c1` reads 220 nM.
The result for `O=C(N[C@@H](CC1CCCCC1)C(=O)NC1CCCc2ccccc21)c1ccc(O)c(-c2ccc(Cl)c(Cl)c2)c1` (stereo partly specified) reads 200 nM; that for `O=[N+]([O-])c1cccc(C(Nc2ccccn2)c2ccc3cccnc3c2O)c1` (stereo unspecified), 1330 nM.
Molecule `Cc1cc(Nc2ccc(C(C)(C)C)cc2)c2[nH]ncc2n1` displayed an IC50 of 1160 nM.

Usually IC50 stands for the concentration at which inhibition is half-maximal. Read a low IC50 as greater potency.
